The target in the experiment is Beta-secretase 1 (Homo sapiens, UniProt P56817). The experiment can be described thus: Competitive inhibition of human recombinant BACE1 by Lineweaver-Burke plot analysis.

Broadly, the Ki is the equilibrium dissociation constant of an inhibitor or competing ligand from its target.

Beta-secretase 1, sequence (P56817 whole entry): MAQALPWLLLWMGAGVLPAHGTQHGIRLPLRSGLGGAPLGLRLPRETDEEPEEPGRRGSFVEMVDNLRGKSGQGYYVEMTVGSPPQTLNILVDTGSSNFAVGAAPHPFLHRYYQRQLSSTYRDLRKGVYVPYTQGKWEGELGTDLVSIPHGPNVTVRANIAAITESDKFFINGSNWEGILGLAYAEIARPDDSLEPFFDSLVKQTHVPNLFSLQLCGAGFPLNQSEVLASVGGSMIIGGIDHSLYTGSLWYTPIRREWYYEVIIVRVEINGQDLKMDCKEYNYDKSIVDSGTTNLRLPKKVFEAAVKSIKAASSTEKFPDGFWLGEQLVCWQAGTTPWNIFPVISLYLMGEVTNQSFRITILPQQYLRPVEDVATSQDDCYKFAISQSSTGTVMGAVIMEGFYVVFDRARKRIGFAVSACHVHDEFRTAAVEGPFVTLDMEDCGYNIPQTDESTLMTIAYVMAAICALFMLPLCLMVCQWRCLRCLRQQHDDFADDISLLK

As for `COC(=O)CCc1c(O)cc2occc2c1OCC=C(C)C` [6,7-Furano-5-prenyloxy hydrocoumaric acid methyl ester], the inhibition constant (Ki) is 11.3 µM.
